Results: patent US6964983B2, “Compounds that modulate PPAR activity and methods for their preparation” (Warner-Lambert Company, LLC, priority 2002, dated 2005)
Where two headings read alike, the source gives them in different places.

Key:
hPPARβ = biological target: T1, hPPARβ (Homo sapiens, UniProt Q03181); test: Transient transfection assay in HepG2 cells, Gal4-hPPARβ chimeric receptor, luciferase reporter; assay type: cell-based
T1 sequence (Q03181 171-441 limits assumed): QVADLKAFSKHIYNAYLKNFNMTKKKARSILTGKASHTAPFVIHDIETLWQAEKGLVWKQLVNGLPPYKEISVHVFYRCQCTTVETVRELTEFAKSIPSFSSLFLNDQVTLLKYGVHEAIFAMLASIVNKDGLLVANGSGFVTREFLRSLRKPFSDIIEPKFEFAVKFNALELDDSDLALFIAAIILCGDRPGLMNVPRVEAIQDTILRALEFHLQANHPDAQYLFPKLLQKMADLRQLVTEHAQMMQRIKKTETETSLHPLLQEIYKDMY
Description: 1. Test A. Transient Transfections Assay using the HepG2 Hepatoma Cell Line.
HepG2 cells were transiently transfected with an expression plasmids encoding hPPARα, hPPARβ or mPPARγ chimeric receptors and a reporter containing the yeast upstream activating sequence (UAS) upstream of the viral E1B promoter controlling a luciferase reporter gene. In addition, the plasmid pRSVβ-gal was used to control for transfection efficiency. HepG2 cells were grown in DMEM supplemented with 10% FBS and 1 μM non-essential amino acid. On the first day, cells were split into 100 mm dishes at 2.5×10^6/dish and incubated overnight at 37° C./5% CO2. On the second day the cells were transiently transfected with plasmid DNA encoding a chimeric receptor, the luciferase reporter gene; and β-gal. For each 100 mm dish, 15 μg of lucifease reporter (PG5E1b) DNA, 15 μg of Gal4-PPAR chimeric receptor DNA, and 1.5 μg of β-gal plasmid DNA were mixed with 1.4 ml of opti-MEM in the tube. 28 μl of LipoFectamine-2000 reagent was added to 1.4 ml of opti-MEM in the tube, and incubate for 5 min at RT. The diluted Lipofectamine-2000 reagent was combined with the DNA mixture, and incubate for 20 min at RT. After fresh medium was added to each 100 mm dish of cells, 2.8 ml of Lipofectamine2000-DNA mixture was added dropwise to the 100 mm dish containing 14 ml of medium, and incubate 37° C. overnight. On day three cells were trypsinized off the 100 mm dishes and re-plated on 96 well plates. Cells were plated at 2.5×10^4 cells per well in 150 μl of media and 50 μl of compound diluted by media was added. The test compound added were in the range from 50 μM to 50 pM. After addition of compounds, the plates were incubated at 37° C. for 24 hours. Subsequently cells were washed with once with 100 μl of PBS, lysed, and processed for measuring luciferase and β-gal activity using Dual-Light luciferase kit from Tropix ®, according to the manufacturer's recommendations, on an EG&G Bethold MicroLumat LB96P luminometer. EC50 values were obtained using the GraphPad Prism™ program.

[1] = Hep G2-hBeta EC50, 24 hours incubation, read-out: EC50β nM (Group)

SMILES	melting point	EC50 (hPPARβ; [1]) [nM]	EC50 (hPPARβ) [nM]
O=C(O)COc1ccc(SCc2cc(-c3ccc(Cl)cc3)on2)c2c1CCCO2 [Example 95, {8-[5-(4-Chloro-phenyl)-isoxazol-3-ylmethylsulfanyl]-chroman-5-yloxy}-acetic acid]	181 to 183 °C	–	–
Cc1cc(SCc2ccc(OCc3ccc(C(F)(F)F)cc3)cc2)c2c(c1OCC(=O)O)CCC2 [Example 64, {5-Methyl-7-[4-(4-trifluoromethyl-benzyloxy)-benzylsulfanyl]-indan-4-yloxy}-acetic acid]	165 to 167 °C	> 5000	–
O=C(O)COc1ccc(SCCc2ccc(-c3ccc(C(F)(F)F)cc3)cc2)c2c1CCC2 [Example 90, {7-[2-(4′-Trifluoromethyl-biphenyl-4-yl)-ethylsulfanyl]-indan-4-yloxy}-acetic acid]	170 to 172 °C	500 to 1000	–
O=C(O)COc1ccc(SCc2ccc(OCc3ccc(Cl)cc3)cc2)c2c1CCC2 [Example 70, {7-[4-(4-Chloro-benzyloxy)-benzylsulfanyl]-indan-4-yloxy}-acetic acid]	170 to 172 °C	500 to 1000	–
Cc1cc(SCc2cc(-c3ccc(C(F)(F)F)cc3)on2)c(Cl)cc1OCC(=O)O [Example 99, {5-Chloro-2-methyl-4-[5-(4-trifluoromethyl-phenyl)-isoxazol-3-ylmethylsulfanyl]-phenoxy}-acetic acid]	180 to 182 °C	300 to 500	–
COc1cc(OCC(=O)O)c(C)cc1[S+]([O-])Cc1ccc(-c2ccc(C(F)(F)F)cc2)cc1 (centres unmarked) [Example 51, [5-Methoxy-2-methyl-4-(4′-trifluoromethyl-biphenyl-4-ylmethanesulfinyl)-phenoxy]-acetic acid]	–	2000 to 5000	–
Cc1cc(SCc2ccc(OCc3ccccn3)cc2)ccc1OCC(=O)O [Example 60, {2-Methyl-4-[4-(pyridine-2-ylmethoxy)-benzylsulfanyl]-phenoxy}-acetic acid]	150 °C	> 5000	–
Cc1cc(SCc2ccc(OCc3ccc(Cl)cc3)cc2)ccc1OCC(=O)O [Example 58, {4-[4-(4-Chloro-benzyloxy)-benzylsulfanyl]-2-methyl-phenoxy}-acetic acid]	164 °C	2000 to 5000	–
O=C(O)COc1ccc(SCc2ccc(OCc3ccc(Cl)c(Cl)c3)cc2)c2c1CCC2 [Example 72, {7-[4-(3,4-Dichloro-benzyloxy)-benzylsulfanyl]-indan-4-yloxy}-acetic acid]	168 °C	1000 to 2000	–
Cc1cc(/C=C/c2ccc(-c3ccc(C(F)(F)F)cc3)cc2)ccc1OCC(=O)O [Example 24, {2-Methyl-4-[2-(4′-trifluoromethyl-biphenyl-4-yl)-vinyl]-phenoxy}-acetic acid]	243 to 245 °C	–	–
O=C(O)COc1ccc(SCc2ccc(-c3ccc(C(F)(F)F)cn3)cc2)c2c1CCC2 [Example 26, {7-[4-(5-Trifluoromethyl-pyridin-2-yl)-benzylsulfanyl]-indan-4-yloxy}-acetic acid]	220 °C (dec.)	< 300	–
COc1cc(OCC(=O)O)c(C)cc1SCc1ccc(-c2ccc(C(F)(F)F)cc2)cc1C [Example 39, [5-Methoxy-2-methyl-4-(3-methyl-4′-trifluoromethyl-biphenyl-4-ylmethylsulfanyl)-phenoxy]-acetic acid]	–	< 300	–
O=C(O)COc1ccc(CCc2ccc(-c3ccc(C(F)(F)F)cc3)cc2)c2c1CCC2 [Example 91, {7-[2-(4′-Trifluoromethyl-biphenyl-4-yl)-ethyl]-indan-4-yloxy}-acetic acid]	188 to 190 °C	2000 to 5000	–
Cc1cc(SCc2ccc(OCc3ccc(C(F)(F)F)cc3)cc2)c(Cl)cc1OCC(=O)O [Example 61, {5-Chloro-2-methyl-4-[4-(4-trifluoromethyl-benzyloxy)-benzylsulfanyl]-phenoxy}-acetic acid]	142 to 143 °C	300 to 500	–
COc1cc(OCC(=O)O)c(C)cc1S(=O)(=O)Cc1ccc(-c2ccc(C(F)(F)F)cc2)cc1 [Example 50, [5-Methoxy-2-methyl-4-(4′-trifluoromethyl-biphenyl-4-ylmethanesulfonyl)-phenoxy]-acetic acid]	–	2000 to 5000	–
O=C(O)COc1ccc(SCc2cccc(OCc3ccc(Cl)c(C(F)(F)F)c3)c2)c2c1CCC2 [Example 80, {7-[3-(4-Chloro-3-trifluoromethyl-benzyloxy)-benzylsulfanyl]-indan-4-yxoly}-acetic acid]	121 to 122 °C	1000 to 2000	–

SMILES	melting point	EC50 (hPPARβ; [1]) [nM]	EC50 (hPPARβ) [nM]
Cc1cc(SCc2ccc(-c3ccccc3)cc2)ccc1OCC(=O)O [Example 2, [4-(Biphenyl-4-ylmethylsulfanyl)-2-methyl-phenoxy]-acetic acid]	138 °C	–	–
Cc1cc(SCc2cc(-c3ccc(Cl)cc3)on2)ccc1OCC(=O)O [Example 96, {4-[5-(4-Chloro-phenyl)-isoxazol-3-ylmethylsulfanyl]-2-methyl-phenoxy}-acetic acid]	152 to 153 °C	–	–
Cc1cc(SCc2ccc(OCc3ccc(C(F)(F)F)cc3)cc2)ccc1OCC(=O)O [Example 15, {2-Methyl-4-[4-(4-trifluoromethyl-benzyloxy)-benzylsulfanyl]-phenoxy}-acetic acid]	133 °C	< 300	–
CC(C)(C)c1ccc(COc2ccc(CSc3ccc(OCC(=O)O)c4c3CCC4)cc2)cc1 [Example 67, {7-[4-(4-tert-Butyl-benzyloxy)-benzylsulfanyl]-indan-4-yloxy}-acetic acid]	152 to 153 °C	–	< 300
Cc1cc(SCc2ccc(Oc3ccccc3)cc2)ccc1OCC(=O)O [Example 47, [2-Methyl-4-(4-phenoxy-benzylsulfanyl)-phenoxy]-acetic acid]	–	> 5000	–
O=C(O)COc1ccc(SCc2ccc(-c3ccc(C(F)(F)F)cc3)cc2)c2c1CCC2 [Example 12, [7-(4′-Trifluoromethyl-biphenyl-4-ylmethylsulfanyl)-indan-4-yloxy]-acetic acid]	158 to 159 °C	< 300	–
Cc1cc(SCc2ccc(OCc3ccccc3)cc2)ccc1OCC(=O)O [Example 13, [4-(4-Benzyloxy-benzylsulfanyl)-2-methyl-phenoxy]-acetic acid]	120 to 121 °C	–	–
O=C(O)COc1ccc(SCc2cc(-c3ccc(C(F)(F)F)cc3)no2)c2c1CCC2 [Example 89, {7-[3-(4-Trifluoromethyl-phenyl)-isoxazol-5-ylmethylsulfanyl]-indan-4-yloxy}-acetic acid]	166 to 168 °C	1000 to 2000	–
O=C(O)COc1ccc(SCc2ccc(OCc3ccc(F)cc3)cc2)c2c1CCC2 [Example 65]	153 to 155 °C	> 5000	–
O=C(O)COc1ccc(SCc2cc(-c3ccc(C(F)(F)F)cc3)on2)c2c1CCCO2 [Example 94, {8-[5-(4-Trifluoromethyl-phenyl)-isoxazol-3-ylmethylsulfanyl]-chroman-5-yloxy}-acetic acid]	171 to 173 °C	–	–
O=C(O)COc1ccc(SCc2cc(-c3ccc(C(F)(F)F)cc3)on2)c2c1CCCC2 [Example 102, {4-[5-(4-trifluoromethyl-phenyl)-isoxazol-3-ylmethylsulfanyl]-5,6,7,8-tetrahydro-naphthalen-1-yloxy}-acetic acid]	167 to 170 °C	–	–
O=C(O)COc1ccc(SCc2ccc(-c3ccc(C(F)(F)F)cn3)cc2)c2c1CCCO2 [Example 86, {8-[4-(5-Trifluoromethyl-pyridine-2-yl)-benzylsulfanyl]-chroman-5-yloxy}-acetic acid]	178 to 179 °C	–	–
O=C(O)COc1ccc(SCc2ccc(Cc3ccc(C(F)(F)F)cc3)cc2)c2c1CCC2 [Example 40, {7-[4-(4-trifluoromethyl-benzyl)-benzylsulfanyl]-indan-4-yloxy}-acetic acid]	–	500 to 1000	–
Cc1cc(SCc2ccc(-c3ccc(C(F)(F)F)cn3)cc2)c(Cl)cc1OCC(=O)O [Example 37, {5-Chloro-2-methyl-4-[4-(5-trifluoromethyl-pyridin-2-yl)-benzylsulfanyl]-phenoxy}-acetic acid]	–	< 300	–
COc1cc(OCC(=O)O)c(C)cc1SCCc1cn(Cc2ccc(C(F)(F)F)cc2)c2ccccc12 [Example 54, (5-Methoxy-2-methyl-4-{2-[1-(4-trifluoromethyl-benzyl)-1H-indol-3-yl]-ethylsulfanyl}-phenoxy)-acetic acid]	–	300 to 500	–
